Assay results reported in ChEMBL document CHEMBL1201862, “PubChem BioAssay data set” (2004).
Calls of active or inactive are those of the source.

Tests used:
[1] = molecular target: T1, Carboxy-terminal domain RNA polymerase II polypeptide A small phosphatase 1 (Homo sapiens, UniProt Q9GZU7); test: inhibitors of CTDSP1, concentration-response testing, biochemical assay, absorbance-based, actives from ultra-high-throughput screening (AID 540297); assay type: functional
T1 sequence (Q9GZU7 whole entry): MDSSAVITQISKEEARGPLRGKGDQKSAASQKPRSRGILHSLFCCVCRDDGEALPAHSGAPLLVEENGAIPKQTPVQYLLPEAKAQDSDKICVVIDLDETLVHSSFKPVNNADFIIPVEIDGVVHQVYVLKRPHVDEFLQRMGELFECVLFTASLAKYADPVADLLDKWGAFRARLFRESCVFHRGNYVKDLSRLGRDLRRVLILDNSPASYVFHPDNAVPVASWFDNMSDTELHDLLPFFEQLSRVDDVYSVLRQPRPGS

[2] = molecular target: Cytochrome P450 2C9 (Homo sapiens, UniProt P11712)
Sequence of Cytochrome P450 2C9 (P11712 whole entry): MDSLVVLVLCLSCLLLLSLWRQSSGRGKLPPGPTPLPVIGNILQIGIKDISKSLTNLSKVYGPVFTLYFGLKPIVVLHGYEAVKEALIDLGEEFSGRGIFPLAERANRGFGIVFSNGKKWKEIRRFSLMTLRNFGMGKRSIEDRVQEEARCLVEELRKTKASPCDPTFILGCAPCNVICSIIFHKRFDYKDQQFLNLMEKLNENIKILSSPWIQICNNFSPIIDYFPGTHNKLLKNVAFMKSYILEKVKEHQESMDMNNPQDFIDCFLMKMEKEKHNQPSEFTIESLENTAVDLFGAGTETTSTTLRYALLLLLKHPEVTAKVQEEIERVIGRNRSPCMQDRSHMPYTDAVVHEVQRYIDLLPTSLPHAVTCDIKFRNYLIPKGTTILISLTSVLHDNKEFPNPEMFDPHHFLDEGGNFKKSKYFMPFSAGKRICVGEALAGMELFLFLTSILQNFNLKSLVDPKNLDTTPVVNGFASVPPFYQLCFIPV

[3] = molecular target: Cytochrome P450 2C19 (Homo sapiens, UniProt P33261); test: Cytochrome panel assay with activity outcomes. Panel member name: p450-cyp2c19 Compounds with AC50 equal or less than 10 uM are considered active; assay type: functional; settings: read-out: AC50
Sequence of Cytochrome P450 2C19 (P33261 whole entry): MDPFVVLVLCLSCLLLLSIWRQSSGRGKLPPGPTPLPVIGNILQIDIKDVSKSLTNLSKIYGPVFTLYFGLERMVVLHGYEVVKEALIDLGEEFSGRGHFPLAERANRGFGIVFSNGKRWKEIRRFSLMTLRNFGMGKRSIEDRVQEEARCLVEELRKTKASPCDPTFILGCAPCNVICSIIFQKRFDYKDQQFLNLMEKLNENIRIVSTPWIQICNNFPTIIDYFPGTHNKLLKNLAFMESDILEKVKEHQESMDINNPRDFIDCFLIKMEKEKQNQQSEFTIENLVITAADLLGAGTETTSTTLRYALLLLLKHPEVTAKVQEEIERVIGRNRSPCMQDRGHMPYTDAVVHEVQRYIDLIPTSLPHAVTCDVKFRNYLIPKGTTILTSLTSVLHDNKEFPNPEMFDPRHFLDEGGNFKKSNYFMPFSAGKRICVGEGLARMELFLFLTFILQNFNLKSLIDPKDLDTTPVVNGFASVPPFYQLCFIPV

[4] = cells; assay type: functional, cell-based
[5] = cells; assay type: functional, cell-based; remark: listed apart in the source
[6] = molecular target: Cytochrome P450 3A4 (Homo sapiens, UniProt P08684);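 further: CYP3A4 tested as one member of a cytochrome P450 panel screen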
Sequence of Cytochrome P450 3A4 (P08684 whole entry, the tested form may be a part): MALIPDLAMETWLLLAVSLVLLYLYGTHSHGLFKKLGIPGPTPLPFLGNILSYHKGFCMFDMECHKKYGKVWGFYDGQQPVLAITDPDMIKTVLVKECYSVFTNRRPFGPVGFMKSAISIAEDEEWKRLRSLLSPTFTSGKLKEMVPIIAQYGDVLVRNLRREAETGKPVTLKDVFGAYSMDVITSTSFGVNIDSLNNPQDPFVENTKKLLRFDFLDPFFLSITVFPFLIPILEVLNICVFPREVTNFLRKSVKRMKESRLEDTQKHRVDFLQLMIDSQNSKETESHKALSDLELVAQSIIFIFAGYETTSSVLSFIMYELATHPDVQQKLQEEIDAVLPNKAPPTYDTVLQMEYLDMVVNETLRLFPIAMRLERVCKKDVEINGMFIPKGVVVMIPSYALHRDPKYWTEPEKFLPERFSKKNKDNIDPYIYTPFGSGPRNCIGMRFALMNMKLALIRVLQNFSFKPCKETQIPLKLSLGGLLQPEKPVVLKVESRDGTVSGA

[7] = molecular target: T2, Fatty acid synthase (Homo sapiens, UniProt P49327); test: FAS thioesterase domain inhibitors, dose response, biochemical, kinetic fluorescence intensity (AID 624326); assay type: functional;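 further: rate of fluorescence rise from hydrolysis of a fluorogenic O-methyl fluorescein ester substrate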
T2 sequence (P49327 whole entry, the tested form may be a part): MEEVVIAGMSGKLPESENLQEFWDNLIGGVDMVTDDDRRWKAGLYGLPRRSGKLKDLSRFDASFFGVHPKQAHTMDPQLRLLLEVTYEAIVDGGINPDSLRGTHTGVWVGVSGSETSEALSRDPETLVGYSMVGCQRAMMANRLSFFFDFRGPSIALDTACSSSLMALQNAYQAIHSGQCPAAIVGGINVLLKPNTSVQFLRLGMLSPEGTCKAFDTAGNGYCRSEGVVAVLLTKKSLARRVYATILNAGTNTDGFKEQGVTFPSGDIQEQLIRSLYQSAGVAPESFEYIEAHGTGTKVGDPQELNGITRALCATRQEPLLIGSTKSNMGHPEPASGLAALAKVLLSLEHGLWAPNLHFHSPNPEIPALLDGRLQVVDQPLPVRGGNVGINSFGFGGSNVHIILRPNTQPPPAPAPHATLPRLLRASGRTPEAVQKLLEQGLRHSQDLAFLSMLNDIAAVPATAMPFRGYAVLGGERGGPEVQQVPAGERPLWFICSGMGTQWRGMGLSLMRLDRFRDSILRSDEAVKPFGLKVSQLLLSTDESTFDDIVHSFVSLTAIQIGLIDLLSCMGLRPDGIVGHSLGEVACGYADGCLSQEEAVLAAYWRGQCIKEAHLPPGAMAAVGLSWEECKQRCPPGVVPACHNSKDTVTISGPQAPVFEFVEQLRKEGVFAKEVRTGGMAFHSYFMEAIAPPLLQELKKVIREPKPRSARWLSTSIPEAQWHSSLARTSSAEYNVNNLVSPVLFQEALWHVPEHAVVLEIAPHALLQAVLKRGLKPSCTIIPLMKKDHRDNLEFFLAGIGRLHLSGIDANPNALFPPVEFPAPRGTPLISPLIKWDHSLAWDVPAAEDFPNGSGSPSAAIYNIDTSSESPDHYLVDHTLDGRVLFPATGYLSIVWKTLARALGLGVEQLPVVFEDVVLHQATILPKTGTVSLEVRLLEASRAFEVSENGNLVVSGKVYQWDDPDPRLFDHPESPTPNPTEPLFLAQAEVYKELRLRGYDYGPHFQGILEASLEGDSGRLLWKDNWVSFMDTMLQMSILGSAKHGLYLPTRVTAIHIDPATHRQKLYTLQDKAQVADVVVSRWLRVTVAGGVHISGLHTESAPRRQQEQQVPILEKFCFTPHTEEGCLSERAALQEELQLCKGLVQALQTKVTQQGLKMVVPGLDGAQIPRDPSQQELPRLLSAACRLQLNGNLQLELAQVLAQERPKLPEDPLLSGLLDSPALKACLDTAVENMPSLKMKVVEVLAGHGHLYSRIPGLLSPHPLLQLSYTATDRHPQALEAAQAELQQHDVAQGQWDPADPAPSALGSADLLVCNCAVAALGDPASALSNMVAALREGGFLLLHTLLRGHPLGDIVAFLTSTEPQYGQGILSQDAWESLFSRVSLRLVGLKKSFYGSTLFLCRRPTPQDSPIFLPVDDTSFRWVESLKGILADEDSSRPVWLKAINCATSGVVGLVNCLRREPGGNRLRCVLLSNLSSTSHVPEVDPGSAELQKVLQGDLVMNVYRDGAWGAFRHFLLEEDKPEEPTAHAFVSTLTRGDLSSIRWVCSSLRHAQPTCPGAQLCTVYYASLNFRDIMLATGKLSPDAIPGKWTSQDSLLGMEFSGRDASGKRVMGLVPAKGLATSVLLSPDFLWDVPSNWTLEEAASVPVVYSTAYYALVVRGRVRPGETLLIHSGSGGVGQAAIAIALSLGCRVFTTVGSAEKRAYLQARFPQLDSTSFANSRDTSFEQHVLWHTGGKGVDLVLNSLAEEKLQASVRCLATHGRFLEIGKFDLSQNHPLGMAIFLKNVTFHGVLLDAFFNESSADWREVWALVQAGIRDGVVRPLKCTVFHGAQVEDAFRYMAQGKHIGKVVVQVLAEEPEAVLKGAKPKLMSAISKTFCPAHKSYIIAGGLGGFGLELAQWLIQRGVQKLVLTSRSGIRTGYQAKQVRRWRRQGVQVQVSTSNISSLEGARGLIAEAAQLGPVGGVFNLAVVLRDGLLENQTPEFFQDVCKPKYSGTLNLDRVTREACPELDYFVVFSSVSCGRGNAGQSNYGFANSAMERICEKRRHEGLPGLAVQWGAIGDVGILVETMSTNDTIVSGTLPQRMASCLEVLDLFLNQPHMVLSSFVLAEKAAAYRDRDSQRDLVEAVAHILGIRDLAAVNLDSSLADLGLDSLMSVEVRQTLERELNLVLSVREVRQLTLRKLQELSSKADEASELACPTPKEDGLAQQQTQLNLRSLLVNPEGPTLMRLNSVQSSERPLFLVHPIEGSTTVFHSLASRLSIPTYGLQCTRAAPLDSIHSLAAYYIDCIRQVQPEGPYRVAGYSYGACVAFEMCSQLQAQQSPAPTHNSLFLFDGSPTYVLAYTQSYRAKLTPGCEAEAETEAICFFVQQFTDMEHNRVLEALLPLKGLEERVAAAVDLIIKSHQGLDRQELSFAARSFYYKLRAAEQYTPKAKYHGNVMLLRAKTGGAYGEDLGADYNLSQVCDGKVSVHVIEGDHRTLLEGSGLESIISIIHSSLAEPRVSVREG

[8] = molecular target: T2, Fatty acid synthase; test: FAS thioesterase domain inhibitors, dose response, biochemical, endpoint fluorescence intensity, uHTS hits (AID 624327); assay type: functional;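 further: fluorescence from hydrolysis of an O-methyl fluorescein acyl ester substrate by the enzyme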
[9] = molecular target: T3, Cytochrome P450 1A2 (Homo sapiens, UniProt P05177);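 further: PubChem cytochrome P450 panel assay, CYP1A2 panel member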
T3 sequence (P05177 whole entry): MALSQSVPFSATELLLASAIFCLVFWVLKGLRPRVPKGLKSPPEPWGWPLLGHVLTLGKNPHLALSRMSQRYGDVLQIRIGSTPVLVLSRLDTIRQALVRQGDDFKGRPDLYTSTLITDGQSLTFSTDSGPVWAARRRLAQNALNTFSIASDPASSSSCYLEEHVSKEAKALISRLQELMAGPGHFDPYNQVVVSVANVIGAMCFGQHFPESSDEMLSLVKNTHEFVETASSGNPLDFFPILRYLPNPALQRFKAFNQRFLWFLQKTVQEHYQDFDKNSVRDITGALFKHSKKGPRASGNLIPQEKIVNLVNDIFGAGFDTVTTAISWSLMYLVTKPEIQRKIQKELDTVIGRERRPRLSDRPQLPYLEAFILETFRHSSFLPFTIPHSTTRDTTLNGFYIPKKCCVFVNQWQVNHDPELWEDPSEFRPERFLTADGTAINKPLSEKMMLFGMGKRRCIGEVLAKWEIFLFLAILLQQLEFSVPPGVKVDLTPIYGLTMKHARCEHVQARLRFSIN

[10] = molecular target: Cytochrome P450 2D6 (Homo sapiens, UniProt P10635);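 further: CYP2D6 member of a cytochrome P450 panel assay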
Sequence of Cytochrome P450 2D6 (P10635 whole entry): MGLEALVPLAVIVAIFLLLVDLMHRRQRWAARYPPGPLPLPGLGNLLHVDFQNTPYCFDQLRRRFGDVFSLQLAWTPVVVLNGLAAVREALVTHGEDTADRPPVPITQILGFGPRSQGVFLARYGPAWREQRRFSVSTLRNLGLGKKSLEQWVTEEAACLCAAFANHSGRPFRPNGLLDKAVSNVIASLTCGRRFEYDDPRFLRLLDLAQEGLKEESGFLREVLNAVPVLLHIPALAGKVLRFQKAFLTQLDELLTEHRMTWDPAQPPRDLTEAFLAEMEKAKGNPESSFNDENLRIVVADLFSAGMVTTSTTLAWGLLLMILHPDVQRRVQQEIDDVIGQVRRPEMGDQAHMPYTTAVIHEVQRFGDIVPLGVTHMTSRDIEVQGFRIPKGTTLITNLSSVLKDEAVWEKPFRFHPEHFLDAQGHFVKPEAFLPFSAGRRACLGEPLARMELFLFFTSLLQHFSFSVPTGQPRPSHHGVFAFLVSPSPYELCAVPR

[11] = inhibitors of SNCA 5'UTR-driven reporter translation, confirmation, H4 neuroglioma cells, luminescence (AID 1988); assay type: functional, cell-based
[12] = inhibitors of firefly luciferase expression or activity, dose response, H4 neuroglioma cells, luminescence (AID 1990); assay type: functional, cell-based
[13] = Luminescence Cell-Based Dose Response HTS to Identify Inhibitors of 5'UTR Stem-Loop Driven Prion Protein mRNA Translation in H4 Neuroglioblastoma Cells. [Related pubchem assays: 1827 (Project Summary), 1813 (Primary HTS)]; assay type: functional
[14] = NIH:OVCAR-3 ovarian cancer cell cytotoxicity, dose response, PAX8 inhibitor project, plate reader, dry powder samples (AID 743044); assay type: functional, cell-based
[15] = molecular target: Paired box protein Pax-8 (Homo sapiens, UniProt Q06710); test: inhibitors of PAX8-driven TPO luciferase reporter, dose response, RMG-I cells, cherry-pick (AID 687027); assay type: functional, cell-based;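 further: luciferase reporter driven by Pax8 target thyroperoxidase promoter measured by SteadyGlo luminescence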
Sequence of Paired box protein Pax-8 (Q06710 whole entry): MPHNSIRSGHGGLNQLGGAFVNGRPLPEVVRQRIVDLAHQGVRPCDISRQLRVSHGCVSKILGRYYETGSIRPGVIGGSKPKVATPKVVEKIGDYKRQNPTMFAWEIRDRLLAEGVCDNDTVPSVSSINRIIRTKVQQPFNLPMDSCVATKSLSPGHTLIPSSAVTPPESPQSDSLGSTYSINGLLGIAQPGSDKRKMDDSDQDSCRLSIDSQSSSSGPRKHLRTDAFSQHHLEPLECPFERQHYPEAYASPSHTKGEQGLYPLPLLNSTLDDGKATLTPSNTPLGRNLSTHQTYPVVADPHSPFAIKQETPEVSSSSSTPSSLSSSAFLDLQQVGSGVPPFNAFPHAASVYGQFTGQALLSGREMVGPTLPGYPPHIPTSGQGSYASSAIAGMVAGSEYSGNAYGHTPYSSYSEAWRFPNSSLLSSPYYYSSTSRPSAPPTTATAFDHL

[16] = molecular target: Genome polyprotein (dengue virus type 2, UniProt P29990); test: Dengue-2 NS5 methyltransferase inhibitors, primary screen, biochemical, confirmation dose response (AID 588689); assay type: functional
[17] = molecular target: FAD-linked sulfhydryl oxidase ALR (Homo sapiens, UniProt P55789); test: inhibitors of human ALR sulfhydryl oxidase, dose response, biochemical, H2O2 detection, luminescence, cherry-pick (AID 493248)
[18] = molecular target: Large T antigen (Simian virus 40, UniProt P03070); assay type: functional, Betapolyomavirus macacae;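 further: Confirmatory-stage PubChem screen for compounds that inhibit SV40 T antigen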
[19] = Luminescence Cell-Based Dose Confirmation HTS to Identify Inhibitors of Platelet Dense Granule Release. [Related pubchem assays: 1663 (Primary HTS), 1678 (Summary of Project)]; assay type: functional
[20] = molecular target: Luciferin 4-monooxygenase (Photinus pyralis, UniProt P08659); test: firefly luciferase enzyme inhibitors, dose response, biochemical, luminescence (AID 1891)

Which IC50 [1] does the source give for `O=C(Cn1ncc(Cl)c(Cl)c1=O)NC1CCS(=O)(=O)C1` (configuration not stated) here?
The IC50 was 8.49 µM (active).

With `CC(C)C(=O)c1c(C(C)C)nn2ccccc12` [IBUDILAST] as the compound, how does the AC50 [2] read?
Its AC50 is “inconclusive”.

What about the AC50 [3] of the same compound?
The AC50 was 3.16 µM (inconclusive).

Which EC50 [4] does the source give for `Cc1cc(O)nc(SCC(=O)Nc2nonc2C)n1` here?
The EC50 was > 350 µM (not active).

And the EC50 [5]?
The EC50 was > 350 µM (not active).

Which results are given for `CC(=O)Nc1cc(S(=O)(=O)Nc2ccccc2)c(C)cc1C`?
AC50 [2]: inconclusive; AC50 [6]: 28.2 µM (inconclusive)

What does the source list for `Cc1ccc(S(=O)(=O)Nc2cccc(-c3ccc(N4CCCCCC4)nn3)c2)cc1`?
IC50 [7]: 3.42 µM (active); IC50 [8]: 6.68 µM (active)

Which results are given for `CC1CCCC(C)N1C(=O)COC(=O)c1cc([N+](=O)[O-])ccc1N1CCOCC1` (configuration not stated)?
IC50 [7]: 9.93 µM (active); IC50 [8]: 7.31 µM (active)

What does the source list for `COc1ccc(CCNC(=O)CC(NC(=O)c2ccccc2Cl)c2ccccc2)cc1` (configuration not stated)?
EC50 [4]: > 350 µM (not active); EC50 [5]: > 350 µM (not active)

For `C[n+]1ccccc1C1CCCC/C1=N\NC(N)=S` (configuration not stated), which IC50 [1] is on record?
The IC50 was 5.71 µM (active).

With `COc1ccc(S(=O)(=O)N2CCN(CC(=O)Nc3cccc(F)c3)CC2)cc1` as the compound, how does the AC50 [9] read?
Its AC50 is 0.0794 µM (inconclusive).

And the AC50 [2]?
Its AC50 is “inconclusive”.

What about the AC50 [10] of the same compound?
Its AC50 is 25.1 µM (inconclusive).

Which IC50 [7] does the source give for `COc1ccc(/C=C(\NC(=O)c2ccc([N+](=O)[O-])cc2)C(=O)NCCCn2ccnc2)cc1` here?
Its IC50 is 3.01 µM (active).

And the IC50 [8]?
Its IC50 is 2.35 µM (active).

Which AC50 [2] does the source give for `O=C(CNC(=O)c1ccc([N+](=O)[O-])cc1)c1ccccc1` here?
Its AC50 is “inconclusive”.

And the AC50 [3]?
Its AC50 is 2.82 µM (inconclusive).

For `COc1ccc2c(c1)c(=O)oc1c(C)c(OC(C)C(=O)N[C@@H](Cc3c[nH]c4ccc(O)cc34)C(=O)O)ccc12` (some centres not stated), which IC50 [1] is on record?
The IC50 was 6.88 µM (active).

For `O=C(NCC1CCCO1)c1cc(-c2ccc(F)cc2)no1` (configuration not stated), which EC50 [4] is on record?
Its EC50 is > 350 µM (not active).

And the EC50 [5]?
Its EC50 is 143 µM (active).

What does the source list for `Cc1ccc(C(=O)N/N=C/c2cc(C)n(-c3ccc(Br)cc3)c2C)cc1[N+](=O)[O-]`?
EC50 [11]: 16.7 µM (active); EC50 [12]: 11.2 µM (active); EC50 [13]: 17.4 µM (active); AC50 [2]: inconclusive

With `COc1cc(/C=C(/C#N)C(=O)Nc2ccccc2)ccc1OCc1ccc(C(=O)O)cc1` as the compound, how does the IC50 [1] read?
Its IC50 is 3.34 µM (active).

For `C[C@H]1CN([C@@H](C)CO)S(=O)(=O)c2ccc(C#Cc3ccc(F)cc3)cc2O[C@H]1CN(C)C(=O)NC1CCCCC1`, which AC50 [14] is on record?
Its AC50 is 44.5 µM (active).

What about the AC50 [15] of the same compound?
Its AC50 is 8.09 µM (active).

With `O=C(C[C@@H]1C[C@H]2c3cc(NC(=O)Nc4ccc(C(F)(F)F)cc4)ccc3O[C@H]2[C@H](CO)O1)NCc1ccc(Cl)cc1` as the compound, how does the AC50 [14] read?
The AC50 was 68.2 µM (active).

What about the AC50 [15] of the same compound?
Its AC50 is 17.5 µM (active).

With `Oc1c(Br)c(Br)c(Br)c(Br)c1Br` [PENTABROMOPHENOL] as the compound, how does the IC50 [7] read?
The IC50 was 6.52 µM (active).

And the IC50 [8]?
Its IC50 is 6.27 µM (active).

With `COc1ccc(S(=O)(=O)NCCC(=O)NCc2ccc(F)cc2)cc1` as the compound, how does the AC50 [2] read?
The AC50 was “inconclusive”.

What about the AC50 [10] of the same compound?
The AC50 was 50.1 µM (inconclusive).

And the AC50 [6]?
Its AC50 is 28.2 µM (inconclusive).

Which IC50 [7] does the source give for `CCOc1ccc(-c2ccc(NS(=O)(=O)c3cc([N+](=O)[O-])c(C)c([N+](=O)[O-])c3)cc2)nn1` here?
The IC50 was 0.706 µM (active).

What about the IC50 [8] of the same compound?
The IC50 was 0.872 µM (active).

With `O=C(COC(=O)c1ccc(S(=O)(=O)NCc2ccco2)cc1)Nc1ccc(Cl)cn1` as the compound, how does the IC50 [1] read?
The IC50 was 4.79 µM (active).

With `NC(=NOC(=O)CC1CCCCC1)c1cccc([N+](=O)[O-])c1` as the compound, how does the IC50 [7] read?
The IC50 was 8.29 µM (active).

What about the IC50 [8] of the same compound?
The IC50 was 7.05 µM (active).

Which results are given for `O=C1NN(c2ccccc2)C(=O)/C1=C/c1ccc(-c2cccc(C(=O)O)c2)o1`?
IC50 [16]: 30.6 µM (active); AC50 [17]: 0.228 µM (active); IC50 [1]: 11 µM (active); IC50 [18]: 24.3 µM (active)

With `N=C1/C(=C\c2ccc(Br)o2)C(=O)N=C2SC(CC(=O)N3CCCCC3)=NN12` as the compound, how does the IC50 [1] read?
Its IC50 is 26.7 µM (active).

And the IC50 [18]?
The IC50 was > 100 µM (active).

Which AC50 [2] does the source give for `CCOc1ccccc1/C=C(\C#N)C(N)=O` here?
The AC50 was “inconclusive”.

For `CN(CC(=O)Nc1ccccc1Br)C(=O)C(Cc1ccccc1)NC(=O)c1ccccc1` (configuration not stated), which EC50 [19] is on record?
The EC50 was > 112 µM (not active).

What about the EC50 [20] of the same compound?
Its EC50 is > 112 µM (not active).
